From patent US20230293560A1, “METHOD FOR MODULATING THE BLADDER MICROBIOME TO IMPROVE BLADDER HEALTH” (Kimberly-Clark Worldwide, Inc., priority 2020, published 2023)

Columns and labels:
[1] = system: E. faecalis; assay: High throughput assay screening of prebiotics; type: cell-based, Enterococcus faecalis; set-up: key: ++: if growth and fermentation was equal to or greater than the positive control; +: if growth and fermentation was less than the positive control; +: if weak or no growth or fermentation; +^2: Bacteria demonstrated growth but no fermentation on the prebiotic; details: 2% w/v prebiotic in API 50 CHL media; for growth and fermentation vs positive control, Ef-2: E. faecalis KC16-7171-3, Bladder; for growth and fermentation vs positive control, Ef-3: E. faecalis KC17-3969-2B, Bladder; for growth and fermentation vs positive control, Ef-4: E. faecalis KC17-4331-3, Bladder
Procedure: (§1) Most of the prebiotic compounds were initially tested in a high throughput assay screening process, described further in the Test Methods section herein, but three prebiotics (as noted in Table 3) were tested using a plate assay screening process as described in the Test Methods section herein. The prebiotics were tested against the commensal bacterial species of Lactobacillus crispatus, Lactobacillus gasseri, and Lactobacillus jensenii and against the pathogenic bacterial species of Streptococcus anginosus and Enterococcus faecalis as shown in Table 2. The bacterial species were taken from different sources, listed as culture collection, bladder, and vagina.
(§2) The results of the assay plate screening of the prebiotic compounds of Table 1 against the bacterial species of Table 2 is documented in Table 3 with the results being described by the following legend: • ++ if growth and fermentation was equal to or greater than the positive control • + if growth and fermentation was less than the positive control • […] if weak or no growth or fermentation • NT if not tested Some codes were not tested based on the use or non-use by the bacteria, as a way to efficiently move through the assay plate screening to the competition assay, described below.
(§3) • 1. Create a 2% w/v stock of prebiotic or positive control (glucose/dextrose) to be tested in API 50 CHL media (Biomerieux, Marcy-I'Étoile, France). API 50 CHL media contains minimal amounts of carbon for growth, and a bromocresol purple as a pH indicator of fermentation. Filter sterilize media with a […]. Store at 4-6° C. until use. • 2. Add 180 μL of media containing the prebiotic to a sterile, flat bottom 96-well microtiter plate (Corning, Corning, NY). • 3. From a freezer stock subculture the bacteria twice into De Man, Rogosa and Sharpe (MRS) broth (BD Difco, Becton Dickinson, Franklin Lakes, NJ), 37° C., stationary, anaerobic, overnight. • 4. From the last subculture, plate onto an MRS agar plate (Teknova, Hollister, CA) and grow 37° C., stationary, anaerobic, overnight. • 5. Create a bacterial suspension by using a sterile tipped swab to transfer colonies of bacteria into a PBS suspension blank to a 0.5 MacFarland (S. anginosus or E. faecalis) or a 1 MacFarland (Lactobacillus species) from the MRS agar plate. • 6. Enumerate the starting culture. • 7. Inoculate the media alone and media containing the prebiotic or positive control with 20 μL of the bacterial suspension. • 8. Place the plate into a spectrophotometer (Molecular Devices, San Jose, CA) and read the plate every 20 minutes for 24-48 hours. Read wavelengths (OD 430, OD 590, and OD 660). A color change to yellow caused by a drop in pH will be read by an increase in the OD430 value and a decrease in the OD590 value and is indicative of bacterial fermentation. An increase in OD660 values is indicative of an increase in turbidity and bacterial growth.

[2] = system: L. crispatus; assay: High throughput assay screening of prebiotics; type: cell-based, Lactobacillus crispatus; set-up: key: ++: if growth and fermentation was equal to or greater than the positive control; +: if growth and fermentation was less than the positive control; +: if weak or no growth or fermentation; +^2: Bacteria demonstrated growth but no fermentation on the prebiotic; details: 2% w/v prebiotic in API 50 CHL media; for growth and fermentation vs positive control, Lc-2: L. crispatus KC16-7134-3C, Bladder; for growth and fermentation vs positive control, Lc-3: L. crispatus KC18-1173-1, Bladder; for growth and fermentation vs positive control, Lc-4: L. crispatus KC18-1174-1, Vagina
Procedure: as §1, §2, §3

[3] = system: S. anginosus; assay: High throughput assay screening of prebiotics; type: cell-based, Streptococcus anginosus; set-up: key: ++: if growth and fermentation was equal to or greater than the positive control; +: if growth and fermentation was less than the positive control; +: if weak or no growth or fermentation; +^2: Bacteria demonstrated growth but no fermentation on the prebiotic; details: 2% w/v prebiotic in API 50 CHL media; for growth and fermentation vs positive control, Sa-2: S. anginosus KC18-1131-3B, Bladder
Procedure: as §1, §2, §3

[4] = system: L. gasseri; assay: High throughput assay screening of prebiotics; type: cell-based, Lactobacillus gasseri; set-up: key: ++: if growth and fermentation was equal to or greater than the positive control; +: if growth and fermentation was less than the positive control; +: if weak or no growth or fermentation; +^2: Bacteria demonstrated growth but no fermentation on the prebiotic; details: 2% w/v prebiotic in API 50 CHL media; for growth and fermentation vs positive control, Lg-1: L. gasseri KC16-7135-1, Bladder; for growth and fermentation vs positive control, Lg-2: L. gasseri KC16-7171-1, Bladder; for growth and fermentation vs positive control, Lg-3: L. gasseri KC18-1131-2, Bladder; for growth and fermentation vs positive control, Lg-4: L. gasseri KC18-1142-2, Bladder
Procedure: as §1, §2, §3

[5] = system: L. jensenii; assay: High throughput assay screening of prebiotics; type: cell-based, Lactobacillus jensenii; set-up: key: ++: if growth and fermentation was equal to or greater than the positive control; +: if growth and fermentation was less than the positive control; +: if weak or no growth or fermentation; +^2: Bacteria demonstrated growth but no fermentation on the prebiotic; details: 2% w/v prebiotic in API 50 CHL media; for growth and fermentation vs positive control, Lj-2: L. jensenii KC17-4347-1, Bladder; for growth and fermentation vs positive control, Lj-1: L. jensenii KC17-4297-18, Bladder
Procedure: as §1, §2, §3

[6] = system: commensal and pathogenic bacterial species; assay: Prebiotic screening, summary in words across species; type: cell-based; details: commensal (L. crispatus, L. gasseri, L. jensenii) and pathogenic (S. anginosus, E. faecalis) species
In short: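 Prebiotics at 2% w/v stock in API 50 CHL medium with bromocresol purple, inoculated with bacteria and read every 20 min for 24-48 h at OD430/590 (fermentation) and OD660 (growth), scored against a glucose control. Some tested on MRS-based agar with the prebiotic in place of glucose; competition assay with L. crispatus and S. anginosus incubated 48 h anaerobically at 37 °C, then enumerated on MRS and TSA.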

With `OCc1ccccc1O[C@@H]1O[C@H](CO)[C@@H](O)[C@H](O)[C@H]1O` [Salicin] the “growth and fermentation vs positive control, Ef-1” value ([1]; E. faecalis ATCC BAA-2128, Culture Collection) was “++”, the “growth and fermentation vs positive control, Ef-2” value [1] was “++” and the “growth and fermentation vs positive control, Ef-3” value [1] was “++”. The “growth and fermentation vs positive control, Ef-4” value [1] was “++”, the “growth and fermentation vs positive control, Lc-1” value ([2]; L. crispatus ATCC 33820, Culture Collection) was “++” and the “growth and fermentation vs positive control, Sa-1” value ([3]; S. anginosus ATCC 33397, Culture Collection) was “++”. The “growth and fermentation vs positive control, Sa-2” value [3] was “++”, the “growth and fermentation vs positive control, Lg-1” value [4] was “++” and the “growth and fermentation vs positive control, Lj-2” value [5] was “++”. For the same molecule, the “overall outcome of the screening of Table 3, in words” value (from here on “overall outcome”) [6] was “able to provide growth on the commensal bacterial species, but also provided growth on the pathogenic bacterial species”.
`OC[C@H]1O[C@@H](O[C@H]2[C@H](O)[C@@H](O)[C@H](O)O[C@@H]2CO)[C@H](O)[C@@H](O)[C@@H]1O` [D-Cellobiose] was tested, and the “growth and fermentation vs positive control, Ef-2” value [1] was “++”, the “growth and fermentation vs positive control, Ef-3” value [1] was “++” and the “growth and fermentation vs positive control, Ef-4” value [1] was “++”. For the same molecule, the “growth and fermentation vs positive control, Lc-2” value [2] was “++”, the “growth and fermentation vs positive control, Lc-3” value [2] was “+” and the “growth and fermentation vs positive control, Lc-4” value [2] was “+”. The “growth and fermentation vs positive control, Sa-2” value [3] was “++”, the “growth and fermentation vs positive control, Lg-1” value [4] was “+” and the “growth and fermentation vs positive control, Lg-2” value [4] was “++”. The “growth and fermentation vs positive control, Lg-3” value [4] was “++”, the “growth and fermentation vs positive control, Lg-4” value [4] was “++” and the “growth and fermentation vs positive control, Lj-1” value [5] was “+”. The “overall outcome” value [6] was “able to provide growth on the commensal bacterial species, but also provided growth on the pathogenic bacterial species”.
`OC[C@H]1O[C@](O)(CO)[C@@H](O)[C@@H]1O` [Beta-D-fructose, Beta-D-Fructose] was tested, and the “growth and fermentation vs positive control, Ef-2” value [1] was “++”, the “growth and fermentation vs positive control, Ef-3” value [1] was “++” and the “growth and fermentation vs positive control, Ef-4” value [1] was “++”. For the same molecule, the “growth and fermentation vs positive control, Lc-2” value [2] was “++”, the “growth and fermentation vs positive control, Lc-3” value [2] was “++” and the “growth and fermentation vs positive control, Lc-4” value [2] was “++”. For the same molecule, the “growth and fermentation vs positive control, Sa-2” value [3] was “++”, the “growth and fermentation vs positive control, Lg-1” value [4] was “+” and the “growth and fermentation vs positive control, Lg-2” value [4] was “+”. The “growth and fermentation vs positive control, Lg-3” value [4] was “+”, the “growth and fermentation vs positive control, Lg-4” value [4] was “+” and the “growth and fermentation vs positive control, Lj-1” value [5] was “++”. The “growth and fermentation vs positive control, Lj-2” value [5] was “+”, the “growth and fermentation vs positive control, Lj-3” value ([5]; L. jensenii KC17-4368-2, Bladder) was “++” and the “overall outcome” value [6] was “able to provide growth on the commensal bacterial species, but also provided growth on the pathogenic bacterial species”.
